Test results taken from PubChem BioAssay AID330 (DTP/NCI, 2004).
“And” between values parts separate entries of the source, which are not always exact repeats. Identical values can stand only once. Toxic doses and inconclusive results are not listed.

Tested on: P388 leukemia ip, CD2F1 mice, survival T/C
Assay: NCI In Vivo Anticancer Drug Screen. Data for tumor model P388 Leukemia (intraperitoneal) in CD2F1 (CDF1) mice
Settings: endpoint: median survival time, higher = longer survival
Procedure, shortened: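 Mice carrying the transplanted tumor received test compound or vehicle. Survival was recorded in each group, and the value is the treated-group measurement divided by that of the vehicle-treated control group.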

[1] = dose: 50.0 mg/kg/injection, schedule: Q01DX005 (ip), vehicle: saline with Tween-80
[2] = dose: 25.0 mg/kg/injection, schedule: Q01DX009 (ip), vehicle: saline with Tween-80
[3] = dose: 100.0 mg/kg/injection, schedule: Q01DX009 (ip), vehicle: saline with Tween-80
[4] = dose: 60.0 mg/kg/injection, schedule: Q01DX005 (ip), vehicle: Klucel (hydroxypropylcellulose) (HPC)
[5] = dose: 120.0 mg/kg/injection, schedule: Q01DX005 (ip), vehicle: Klucel (hydroxypropylcellulose) (HPC)
[6] = dose: 240.0 mg/kg/injection, schedule: Q01DX005 (ip), vehicle: Klucel (hydroxypropylcellulose) (HPC)
[7] = dose: 6.25 mg/kg/injection, schedule: Q01DX009 (ip), vehicle: saline
[8] = dose: 12.5 mg/kg/injection, schedule: Q01DX005 (ip), vehicle: saline with Tween-80
[9] = dose: 25.0 mg/kg/injection, schedule: Q01DX005 (ip), vehicle: saline with Tween-80
[10] = dose: 100.0 mg/kg/injection, schedule: Q01DX005 (ip), vehicle: saline with Tween-80
[11] = dose: 200.0 mg/kg/injection, schedule: Q01DX005 (ip), vehicle: saline with Tween-80

## COc1cc([C@H]2c3cc(O)c(OC)cc3C[C@]3(O)[C@@H]2CO[C@@H]3O)ccc1O
dose: 4.75 mg/kg/injection, schedule: Q01DX005 (ip), vehicle: saline with Tween-80
  T/C: 104 % of control
dose: 9.5 mg/kg/injection, schedule: Q01DX005 (ip), vehicle: saline with Tween-80
  T/C: 95 % of control
dose: 19.0 mg/kg/injection, schedule: Q01DX005 (ip), vehicle: saline with Tween-80
  T/C: 96 % of control
dose: 38.0 mg/kg/injection, schedule: Q01DX005 (ip), vehicle: saline with Tween-80
  T/C: 99 % of control

## O=C1Nc2c(Cl)cc(Cl)cc2/C1=N/N=C/c1ccccc1O
[1]
  T/C: 91 % of control

## COc1ccc2nccc(CO)c2c1
dose: 50.0 mg/kg/injection, schedule: Q01DX005 (ip), vehicle: Klucel (hydroxypropylcellulose) (HPC)
  T/C: 102 % of control
dose: 100.0 mg/kg/injection, schedule: Q01DX005 (ip), vehicle: Klucel (hydroxypropylcellulose) (HPC)
  T/C: 102 % of control
dose: 200.0 mg/kg/injection, schedule: Q01DX005 (ip), vehicle: Klucel (hydroxypropylcellulose) (HPC)
  T/C: 96 % of control

## CCSC(=N)N=Nc1ccc(O)cc1
[2]
  T/C: 100 % of control
dose: 50.0 mg/kg/injection, schedule: Q01DX009 (ip), vehicle: saline with Tween-80
  T/C: 99 % of control
[3]
  T/C: 99 % of control
dose: 200.0 mg/kg/injection, schedule: Q01DX009 (ip), vehicle: saline with Tween-80
  T/C: 93 % of control

## CNc1ccccc1C(=O)N1CCc2c([nH]c3ccccc23)C1=O
[2]
  T/C: 98 % of control
[3]
  T/C: 93 % of control

## CC1=C(CO)C(=O)OC(C(C)C2CCC3C4CC5OC56C(O)C(N5CC5)=CC(=O)C6(C)C4CCC23C)C1 (configuration not stated)
dose: 5.0 mg/kg/injection, schedule: Q01DX005 (ip), vehicle: Klucel (hydroxypropylcellulose) (HPC)
  T/C: 110 % of control
dose: 10.0 mg/kg/injection, schedule: Q01DX005 (ip), vehicle: Klucel (hydroxypropylcellulose) (HPC)
  T/C: 120 % of control and 91 % of control and 97 % of control
dose: 20.0 mg/kg/injection, schedule: Q01DX005 (ip), vehicle: Klucel (hydroxypropylcellulose) (HPC)
  T/C: 103 % of control and 104 % of control and 123 % of control
dose: 40.0 mg/kg/injection, schedule: Q01DX005 (ip), vehicle: Klucel (hydroxypropylcellulose) (HPC)
  T/C: 103 % of control and 106 % of control and 123 % of control
dose: 80.0 mg/kg/injection, schedule: Q01DX005 (ip), vehicle: Klucel (hydroxypropylcellulose) (HPC)
  T/C: 108 % of control and 109 % of control
dose: 160.0 mg/kg/injection, schedule: Q01DX005 (ip), vehicle: Klucel (hydroxypropylcellulose) (HPC)
  T/C: 105 % of control

## Cc1csc2nc(-c3cccs3)nn12
dose: 30.0 mg/kg/injection, schedule: Q01DX005 (ip), vehicle: Klucel (hydroxypropylcellulose) (HPC)
  T/C: 103 % of control
[4]
  T/C: 98 % of control
[5]
  T/C: 103 % of control
[6]
  T/C: 105 % of control

## COc1ccc(C2COc3cc4c(cc3C2)OCO4)cc1 (configuration not stated)
dose: 60.0 mg/kg/injection, schedule: Q01DX005 (ip), vehicle: saline with Tween-80
  T/C: 98 % of control
dose: 120.0 mg/kg/injection, schedule: Q01DX005 (ip), vehicle: saline with Tween-80
  T/C: 98 % of control
dose: 240.0 mg/kg/injection, schedule: Q01DX005 (ip), vehicle: saline with Tween-80
  T/C: 96 % of control

## O=C1NC(=O)[C@@]2(CC[C@@H](O)C2)c2ccncc21
dose: 1.5 mg/kg/injection, schedule: Q01DX009 (ip), vehicle: DMSO
  T/C: 89 % of control
dose: 3.0 mg/kg/injection, schedule: Q01DX009 (ip), vehicle: DMSO
  T/C: 93 % of control
dose: 6.0 mg/kg/injection, schedule: Q01DX009 (ip), vehicle: DMSO
  T/C: 101 % of control
dose: 12.0 mg/kg/injection, schedule: Q01DX009 (ip), vehicle: DMSO
  T/C: 95 % of control
dose: 25.0 mg/kg/injection, schedule: Q01DX005 (ip), vehicle: DMSO
  T/C: 91 % of control
dose: 50.0 mg/kg/injection, schedule: Q01DX005 (ip), vehicle: DMSO
  T/C: 96 % of control
dose: 100.0 mg/kg/injection, schedule: Q01DX005 (ip), vehicle: DMSO
  T/C: 93 % of control
dose: 200.0 mg/kg/injection, schedule: Q01DX005 (ip), vehicle: DMSO
  T/C: 92 % of control

## Nc1ccc(O)c(N)c1
dose: 0.78 mg/kg/injection, schedule: Q01DX009 (ip), vehicle: saline
  T/C: 99 % of control
dose: 1.56 mg/kg/injection, schedule: Q01DX009 (ip), vehicle: saline
  T/C: 96 % of control
dose: 3.12 mg/kg/injection, schedule: Q01DX009 (ip), vehicle: saline
  T/C: 102 % of control
[7]
  T/C: 105 % of control

## O=C(O)CCSC(=S)NN1CCN(NC(=S)SCCC(=O)O)CC1
[4]
  T/C: 108 % of control
[5]
  T/C: 100 % of control
[6]
  T/C: 96 % of control

## CC(=O)OC1CCC2C3CCC4=C(C(=O)C=CC4(C)O)C3CCC12C (configuration not stated)
dose: 4.0 mg/kg/injection, schedule: Q01DX009 (ip), vehicle: Klucel (hydroxypropylcellulose) (HPC)
  T/C: 93 % of control
dose: 8.0 mg/kg/injection, schedule: Q01DX009 (ip), vehicle: Klucel (hydroxypropylcellulose) (HPC)
  T/C: 90 % of control
dose: 16.0 mg/kg/injection, schedule: Q01DX009 (ip), vehicle: Klucel (hydroxypropylcellulose) (HPC)
  T/C: 101 % of control
dose: 32.0 mg/kg/injection, schedule: Q01DX009 (ip), vehicle: Klucel (hydroxypropylcellulose) (HPC)
  T/C: 88 % of control
dose: 64.0 mg/kg/injection, schedule: Q01DX009 (ip), vehicle: Klucel (hydroxypropylcellulose) (HPC)
  T/C: 108 % of control

## CCC1(c2ccccc2)N=C1N(C)C (configuration not stated)
[7]
  T/C: 106 % of control and 92 % of control
dose: 12.5 mg/kg/injection, schedule: Q01DX009 (ip), vehicle: saline
  T/C: 109 % of control and 120 % of control
dose: 25.0 mg/kg/injection, schedule: Q01DX009 (ip), vehicle: saline
  T/C: 116 % of control and 118 % of control
dose: 200.0 mg/kg/injection, schedule: Q01DX009 (ip), vehicle: saline
  T/C: 93 % of control

## O=C(c1ccccc1)c1cnc2nc(-c3ccccc3)c(-c3ccccc3)nn12
[8]
  T/C: 89 % of control
[9]
  T/C: 90 % of control
[1]
  T/C: 93 % of control and 94 % of control
[10]
  T/C: 101 % of control
[11]
  T/C: 102 % of control

## Clc1ccc(OCC(COc2ccc(Cl)cc2)(COc2ccc(Cl)cc2)COc2ccc(Cl)cc2)cc1
dose: 7.5 mg/kg/injection, schedule: Q01DX009 (ip), vehicle: saline with Tween-80
  T/C: 99 % of control
dose: 15.0 mg/kg/injection, schedule: Q01DX009 (ip), vehicle: saline with Tween-80
  T/C: 104 % of control
dose: 30.0 mg/kg/injection, schedule: Q01DX009 (ip), vehicle: saline with Tween-80
  T/C: 95 % of control

## C[N+](C)(C)NC1OC(C(O)S(=O)(=O)O)C(OCc2ccccc2)C(OCc2ccccc2)C1O (configuration not stated)
dose: 50.0 mg/kg/injection, schedule: Q01DX009 (ip), vehicle: saline
  T/C: 104 % of control
dose: 100.0 mg/kg/injection, schedule: Q01DX009 (ip), vehicle: saline
  T/C: 106 % of control

## Brc1ccc(/C=C/c2ccncc2)cc1
[1]
  T/C: 104 % of control
[10]
  T/C: 99 % of control
[11]
  T/C: 93 % of control

## CN1CCC(O)(/C=C\C2(O)CCN(C)CC2)CC1
dose: 100.0 mg/kg/injection, schedule: Q01DX001 (ip), vehicle: saline
  T/C: 96 % of control
dose: 200.0 mg/kg/injection, schedule: Q01DX001 (ip), vehicle: saline
  T/C: 89 % of control
dose: 400.0 mg/kg/injection, schedule: Q01DX001 (ip), vehicle: saline
  T/C: 107 % of control

## CCCNC(=O)NS(=O)(=O)c1ccc(Cl)cc1
dose: 50.0 mg/kg/injection, schedule: Q04DX003 (ip), vehicle: saline with Tween-80
  T/C: 102 % of control
dose: 100.0 mg/kg/injection, schedule: Q04DX003 (ip), vehicle: saline with Tween-80
  T/C: 109 % of control
dose: 200.0 mg/kg/injection, schedule: Q04DX003 (ip), vehicle: saline with Tween-80
  T/C: 100 % of control

## O=C(NCCCl)OCC1=C(COC(=O)NCCCl)C(=O)c2ccccc2C1=O
[8]
  T/C: 100 % of control and 102 % of control
[9]
  T/C: 101 % of control and 106 % of control
[1]
  T/C: 110 % of control
[10]
  T/C: 113 % of control

## C[C@]12CCC(=O)N[C@@H]1CC[C@@H]1[C@@H]2CC[C@]2(C)[C@@H](OC(=O)COc3ccc(N(CCCl)CCCl)cc3)CC[C@@H]12
dose: 2.5 mg/kg/injection, schedule: Q01DX005 (ip), vehicle: saline with Tween-80
  T/C: 116 % of control
dose: 10.0 mg/kg/injection, schedule: Q01DX005 (ip), vehicle: saline with Tween-80
  T/C: 155 % of control
dose: 15.0 mg/kg/injection, schedule: Q01DX005 (ip), vehicle: saline with Tween-80
  T/C: 181 % of control
dose: 20.0 mg/kg/injection, schedule: Q01DX005 (ip), vehicle: saline with Tween-80
  T/C: 192 % of control
dose: 30.0 mg/kg/injection, schedule: Q01DX005 (ip), vehicle: saline with Tween-80
  T/C: 220 % of control

## C=COC(=O)C(Cc1cccs1)NC(=O)OCc1ccccc1 (configuration not stated)
[1]
  T/C: 101 % of control
[10]
  T/C: 96 % of control
[11]
  T/C: 95 % of control
